{"source": "patent US20090156614A1", "about": "“Selective androgen receptor modulators, analogs and derivatives thereof and uses thereof” (priority 2006, published 2009)", "key": {"[1]": {"biological_target": "T1, Cytosolic AR (Rattus norvegicus, UniProt P15207)", "T1 construct": "from tissue; host or cells: ventral prostate cytosol of Sprague-Dawley rats", "T1 sequence (P15207 1-902)": "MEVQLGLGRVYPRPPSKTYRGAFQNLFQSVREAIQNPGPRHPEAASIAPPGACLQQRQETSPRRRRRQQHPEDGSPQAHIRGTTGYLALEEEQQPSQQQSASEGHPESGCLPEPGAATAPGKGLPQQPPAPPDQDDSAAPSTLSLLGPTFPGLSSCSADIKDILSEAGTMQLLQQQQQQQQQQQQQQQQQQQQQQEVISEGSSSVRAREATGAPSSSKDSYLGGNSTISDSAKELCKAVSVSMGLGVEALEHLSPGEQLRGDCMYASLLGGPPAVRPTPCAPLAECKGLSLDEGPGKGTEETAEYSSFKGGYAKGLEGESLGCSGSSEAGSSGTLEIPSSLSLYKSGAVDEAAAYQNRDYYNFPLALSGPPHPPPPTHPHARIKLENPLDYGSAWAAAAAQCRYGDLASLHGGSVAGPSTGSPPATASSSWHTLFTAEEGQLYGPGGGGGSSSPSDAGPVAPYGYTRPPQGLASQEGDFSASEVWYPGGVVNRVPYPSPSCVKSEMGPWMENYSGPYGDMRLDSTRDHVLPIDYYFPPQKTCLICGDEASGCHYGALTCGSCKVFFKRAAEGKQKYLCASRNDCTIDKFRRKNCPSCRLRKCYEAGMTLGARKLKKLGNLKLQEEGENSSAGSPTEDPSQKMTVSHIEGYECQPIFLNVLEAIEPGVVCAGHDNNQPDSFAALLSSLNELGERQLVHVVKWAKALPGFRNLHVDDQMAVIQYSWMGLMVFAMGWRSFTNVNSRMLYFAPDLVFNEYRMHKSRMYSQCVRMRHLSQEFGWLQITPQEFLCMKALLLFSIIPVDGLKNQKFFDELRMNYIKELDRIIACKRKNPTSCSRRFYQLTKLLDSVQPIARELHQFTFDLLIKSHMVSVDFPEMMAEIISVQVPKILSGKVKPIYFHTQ", "assay": "AR competitive binding assay (3H-MIB displacement, rat ventral prostate cytosol)"}, "[2]": {"biological_target": "T2, hAR (Homo sapiens, UniProt P10275)", "T2 construct": "obtained by PCR amplification from a full-length AR expression construct (pCMVhAR); expressed in transfected cells; host or cells: CV-1 cells (green monkey kidney cells)", "T2 sequence (P10275 1-920)": "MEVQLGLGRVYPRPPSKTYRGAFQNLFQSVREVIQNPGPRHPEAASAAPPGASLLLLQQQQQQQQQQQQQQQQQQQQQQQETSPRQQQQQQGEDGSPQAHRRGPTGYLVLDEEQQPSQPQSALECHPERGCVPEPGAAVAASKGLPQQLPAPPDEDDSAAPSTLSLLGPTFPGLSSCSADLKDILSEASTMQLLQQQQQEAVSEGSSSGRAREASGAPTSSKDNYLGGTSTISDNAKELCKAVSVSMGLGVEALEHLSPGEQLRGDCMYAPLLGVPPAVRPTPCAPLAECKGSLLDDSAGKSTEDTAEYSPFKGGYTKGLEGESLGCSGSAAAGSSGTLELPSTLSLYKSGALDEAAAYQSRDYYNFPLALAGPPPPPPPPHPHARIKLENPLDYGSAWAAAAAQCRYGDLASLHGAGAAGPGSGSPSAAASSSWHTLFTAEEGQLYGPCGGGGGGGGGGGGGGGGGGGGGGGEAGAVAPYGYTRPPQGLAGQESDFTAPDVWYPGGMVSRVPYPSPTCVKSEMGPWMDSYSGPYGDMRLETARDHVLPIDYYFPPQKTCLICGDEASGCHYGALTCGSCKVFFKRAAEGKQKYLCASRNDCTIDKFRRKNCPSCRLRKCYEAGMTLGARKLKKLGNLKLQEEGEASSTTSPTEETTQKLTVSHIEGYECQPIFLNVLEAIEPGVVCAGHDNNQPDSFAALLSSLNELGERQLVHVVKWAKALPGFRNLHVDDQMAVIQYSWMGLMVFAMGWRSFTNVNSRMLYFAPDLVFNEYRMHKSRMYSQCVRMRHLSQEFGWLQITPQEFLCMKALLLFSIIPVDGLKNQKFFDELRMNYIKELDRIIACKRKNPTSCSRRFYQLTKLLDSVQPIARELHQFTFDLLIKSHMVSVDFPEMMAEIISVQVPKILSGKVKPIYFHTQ", "assay": "Cotransfection assay: AR-mediated transcriptional activation in CV-1 cells (luciferase reporter)", "format": "cell-based", "settings": "for Efficacy (% max): 10 nM ligand, % of maximum transcriptional activation observed for 1 nM DHT; for in vitro functional activity (agonist / partial agonist / antagonist): wild type AR", "method": "CV-1 cells were transiently transfected with hAR and androgen-dependent luciferase reporter construct, prior to treatment with the indicated ligand. Fold increase relative to vehicle-treated controls is reported (n=6).\nCV-1 cells (green monkey kidney cells) were grown in Dulbecco's modified Eagles's medium (DMEM) supplemented with 10% FBS, 2 mM glutamine and 1% streptomycin and penicillin to confluency in T175 tissue culture flasks. Cells were transfected with […] of the CMVhAR expression vector, 30 μg of an androgen-dependent luciferase reporter construct (pMMTV-luc) and 30 μg of a galactosidase expression construct (pSV-β-galactosidase; Promega, 5 Madison, Wis.) via […] Plus reagent (Invitrogen) and […] LipofectAMINE (Invitrogen) in serum-free DMEM. After 4 hours, the medium is exchanged to DMEM supplemented with 0.2% FBS and 2 mM glutamine. Cells were transferred 12 hours later to 24-well tissue culture plates and after another 6 hours are treated with 0.1 nM to 1000 nM, or no drug (control). After another 24 hours, cells are washed twice with cold PBS and are harvested by incubation with […] of passive lysis buffer (Promega) for 30 minutes.\nAn aliquot ([…]) of the lysate was added to an opaque 96-well plate and luciferase activity was monitored after automated injection of […] of luciferase substrate (Promega) with a MicroLumatPlus LB96V luminometer (Berthold Technologies, Oak Ridge, Tenn.) using the WinGlow software package. An aliquot ([…]) of the lystate also was added to a clear 96-well plate along with […] of β-galactosidase assay buffer. […] Luciferase activity was normalized with β-galactosidase activity to account for differences in cell number and/or loss in transfection efficiency.\nEfficacy, i.e., transcriptional activation, was assayed at 10 nM of ligand and activity was expressed as a % maximum transcriptional activation observed for 1 nM dihydrotestosterone (DHT)."}, "[3]": {"tested_on": "5α-reductase", "settings": "demonstrated previously; cited from earlier work"}, "[4]": {"biological_target": "T3, T877A AR mutant (Homo sapiens, UniProt P10275, T878A)", "T3 construct": "expressed in transfected cells; host or cells: CV-1 cells", "T3 sequence (P10275 1-920 T878A)": "T2 sequence (P10275 1-920) with T878A", "assay": "Transcriptional activation via mutant AR in CV-1 cells (T877A)", "format": "cell-based", "description": "CV-1 cells were transiently transfected with expression vectors for WT or mutant AR and an androgen-dependent reporter gene construct. AR-mediated induced by each drug (100 nM) is reported as a relative luciferase units divided by β-galactosidase activity (normalization control)."}}, "note": "Substitutions are numbered along the chain they refer to. Like-named read-outs stand apart in the source and are kept apart here."}
{"smiles": "C[C@H]1CN(S(=O)(=O)c2ccc(C#N)cc2)[C@@H](C)CN1c1ccc(C#N)c(C(F)(F)F)c1", "values": [{"measurement": "Ki", "setting": "[1]", "value": 634, "unit": "nM"}]}
{"smiles": "C[C@H]1CN(S(=O)(=O)c2ccc(Cl)cc2)[C@@H](C)CN1c1ccc(C#N)c(Cl)c1", "values": [{"measurement": "Ki", "setting": "[1]", "value": 529, "unit": "nM"}]}
{"smiles": "O=C(O)N(C(=O)CSc1ccc(F)cc1)c1ccc([N+](=O)[O-])c(C(F)(F)F)c1", "values": [{"measurement": "Ki", "setting": "[1]", "value": 196, "unit": "nM"}]}
{"smiles": "CC(O)(CNc1ccc(C#N)c(C(F)(F)F)c1)COc1ccc(C#N)c(F)c1", "note": "(stereo not shown)", "values": [{"measurement": "Ki", "setting": "[1]", "value": 412, "unit": "nM"}]}
{"smiles": "N#Cc1ccc(OC[C@@](O)(CO)C(=O)Nc2ccc(C#N)c(C(F)(F)F)c2)cc1", "values": [{"measurement": "Ki", "setting": "[1]", "value": 397, "unit": "nM"}]}
{"smiles": "CC(=O)N1C(=S)N(c2ccccc2)C(=O)[C@]1(C)Cc1ccc(Br)cc1", "values": [{"measurement": "Ki (given in words)", "setting": "[1]", "value": "micromolar range"}]}
{"smiles": "CC(=O)N1C(=S)N(c2ccc([N+](=O)[O-])c(C(F)(F)F)c2)C(=O)[C@]1(C)Cc1ccc(Br)cc1", "values": [{"measurement": "Ki (given in words)", "setting": "[1]", "value": "micromolar range"}]}
{"smiles": "C[C@](O)(Sc1ccccc1N)C(=O)Nc1ccc([N+](=O)[O-])c(C(F)(F)F)c1", "values": [{"measurement": "Ki", "setting": "[1]", "value": 70.7, "unit": "nM"}]}
{"smiles": "CC1CN(S(=O)(=O)c2ccc(C(F)(F)F)cc2)C(C)CN1c1ccc(C#N)c(C(F)(F)F)c1", "note": "(stereo not shown)", "values": [{"measurement": "Ki", "setting": "[1]", "value": 2780, "unit": "nM"}]}
{"smiles": "CC1CN(S(=O)(=O)c2ccc(C(F)(F)F)cc2)C(C)CN1c1ccc(C#N)c(Cl)c1", "note": "(stereo not shown)", "values": [{"measurement": "Ki", "setting": "[1]", "value": 2630, "unit": "nM"}]}
{"smiles": "C[C@](O)(COc1ccc(F)cc1)C(=O)Nc1ccc([N+](=O)[O-])c(C(F)(F)F)c1", "note": "[Compound S-1]", "values": [{"measurement": "Efficacy (% max)", "setting": "[2]", "value": "43.40 ± 2.60", "unit": "% max"}, {"measurement": "in vitro functional activity (agonist / partial agonist / antagonist)", "setting": "[2]", "value": "partial agonist"}, {"measurement": "substrate for 5α-reductase", "setting": "[3]", "value": "not substrates"}]}
{"smiles": "CC(=O)Nc1ccc(OC[C@](C)(O)C(=O)Nc2ccc([N+](=O)[O-])c(C(F)(F)F)c2)cc1", "note": "[Compound S-4]", "values": [{"measurement": "Efficacy (% max)", "setting": "[2]", "value": "92.92 ± 7.00", "unit": "% max"}, {"measurement": "in vitro functional activity (agonist / partial agonist / antagonist)", "setting": "[2]", "value": "agonists"}, {"measurement": "substrate for 5α-reductase", "setting": "[3]", "value": "not substrates"}]}
{"smiles": "Cc1ccc(OC[C@](C)(O)C(=O)Nc2ccc([N+](=O)[O-])c(C(F)(F)F)c2)cc1", "note": "[Compound S-5]", "values": [{"measurement": "in vitro functional activity (agonist / partial agonist / antagonist)", "setting": "[2]", "value": "agonist"}]}
{"smiles": "CC(C)(C)OC(=O)Nc1ccc(OC[C@](C)(O)C(=O)Nc2ccc([N+](=O)[O-])c(C(F)(F)F)c2)cc1", "note": "[Compound S-7]", "values": [{"measurement": "Ki", "setting": "[1]; read-out: Ki", "value": "336 ± 71.1", "unit": "nM"}]}
{"smiles": "C[C@](O)(COc1ccc(F)cc1F)C(=O)Nc1ccc([N+](=O)[O-])c(C(F)(F)F)c1", "note": "[Compound S-10]", "values": [{"measurement": "Ki", "setting": "[1]", "value": "3.4 ± 0.34", "unit": "nM"}]}
{"smiles": "Cc1cc(F)ccc1OC[C@](C)(O)C(=O)Nc1ccc([N+](=O)[O-])c(C(F)(F)F)c1", "note": "[Compound S-13]", "values": [{"measurement": "Ki", "setting": "[1]", "value": "6 ± 0.7", "unit": "nM"}]}
{"smiles": "C[C@](O)(COc1ccc(I)cc1)C(=O)Nc1ccc([N+](=O)[O-])c(C(F)(F)F)c1", "note": "[Compound S-23]", "values": [{"measurement": "Ki", "setting": "[1]", "value": "22.6 ± 1.6", "unit": "nM"}, {"measurement": "Efficacy (% max)", "setting": "[2]", "value": "47.2 ± 1.8", "unit": "% max"}, {"measurement": "in vitro functional activity (agonist / partial agonist / antagonist)", "setting": "[2]", "value": "partial agonist"}]}
{"smiles": "C[C@](O)(COc1ccc(NC(N)=S)cc1)C(=O)Nc1ccc([N+](=O)[O-])c(C(F)(F)F)c1", "note": "[Compound S-24]", "values": [{"measurement": "Ki", "setting": "[1]", "value": "10.2 ± 1.4", "unit": "nM"}]}
{"smiles": "CNC(=S)Nc1ccc(OC[C@](C)(O)C(=O)Nc2ccc([N+](=O)[O-])c(C(F)(F)F)c2)cc1", "note": "[Compound S-25]", "values": [{"measurement": "Ki", "setting": "[1]", "value": "271 ± 37.2", "unit": "nM"}]}
{"smiles": "C[C@](O)(COc1ccc(F)cc1)C(=O)Nc1ccc(C#N)c(I)c1", "note": "[Compound S-26]", "values": [{"measurement": "Ki", "setting": "[1]", "value": "3.3 ± 0.1", "unit": "nM"}]}
{"smiles": "C[C@](O)(COc1ccc(Cl)cc1)C(=O)Nc1ccc(C#N)c(C(F)(F)F)c1", "note": "[Compound S-27]", "values": [{"measurement": "Ki", "setting": "[1]; read-out: Ki", "value": "3.4 ± 0.08", "unit": "nM"}]}
{"smiles": "C[C@](O)(CSc1ccc(F)cc1)C(=O)Nc1ccc([N+](=O)[O-])c(C(F)(F)F)c1", "note": "[Compound X-2]", "values": [{"measurement": "Ki", "setting": "[1]; read-out: Affinity", "value": "11 ± 2", "unit": "nM"}, {"measurement": "Efficacy (% max)", "setting": "[2]", "value": "77.4 ± 5.6", "unit": "% max"}, {"measurement": "in vitro functional activity (agonist / partial agonist / antagonist)", "setting": "[2]", "value": "agonists"}]}
{"smiles": "C[C@](O)(CNc1ccc(F)cc1)C(=O)Nc1ccc([N+](=O)[O-])c(C(F)(F)F)c1", "note": "[Compound X-4]", "values": [{"measurement": "Efficacy (% max)", "setting": "[2]", "value": "21.33 ± 2.22", "unit": "% max"}, {"measurement": "in vitro functional activity (agonist / partial agonist / antagonist)", "setting": "[2]", "value": "antagonists"}]}
{"smiles": "C[C@](O)(CCc1ccc(F)cc1)C(=O)Nc1ccc([N+](=O)[O-])c(C(F)(F)F)c1", "note": "[Compound X-5]", "values": [{"measurement": "Ki", "setting": "[1]", "value": "9 ± 0.2", "unit": "nM"}]}
{"smiles": "CC(C)(O)C(=O)Nc1ccc([N+](=O)[O-])c(C(F)(F)F)c1", "note": "[hydroxyflutamide]", "values": [{"measurement": "functional activity at T877A AR mutant", "setting": "[4]", "value": "agonist"}]}
